Assay results from article PMC3746205, “Two mixed-NH3/amine platinum (II) anticancer complexes featuring a dichloroacetate moiety in the leaving group” (Scientific Reports, 2013).
Several values for one entry are separate records, joined by “and”; a condition that tells them apart may be missing. Identical values can stand only once. Like-named read-outs stand apart in the source and are kept apart here.

Assays:
[1] = tested on: A549 cells (non-small cell lung carcinoma); assay: MTS cytotoxicity assay, A549; assay type: cell-based, human; settings: read-out: IC50 (mean ± SD)
Method: (§1) Human lung cancer (A549), human normal lung epithelial cell line (BEAS-2B), human stomach cancer (SGC-7901) and human ovarian cancer (SK-OV-3) were purchased from ATCC, whereas cisplatin-resistant SK-OV-3 cells (SK-OV-3/DDP) were kindly provided by Chinese Academy of Medical Sciences (Beijing, China). Cells were grown in DMEM or RPMI-1640 medium (Hyclone, USA) containing 10% fetal bovine serum. Both media were supplemented with 100 units/ml of penicillin and 100 μg/ml of streptomycin. Cells were maintained at 37°C in a humidified incubator with an atmosphere of 5% CO2.
(§2) Cytotoxicity was determined by performing MTS assay. Briefly, 100 μl of cells suspension were seeded in 96-well cell culture plates and allowed to adhere overnight. The cells were treated with drugs for 48 hours, and then 20 μl of CellTiter 96® AQueous One Solution Reagent (Promega, Madison, USA) was added and the cells were further incubated at 37°C for 1–2 h. Cell viability was measured by reading the absorbance at a wavelength of 490 nm. Concentrations of 50% inhibition of growth (IC50) were calculated on the basis of the relative survival curve.

[2] = tested on: SGC-7901 cells (gastric carcinoma); assay: MTS cytotoxicity assay, SGC-7901; assay type: cell-based, human; settings: read-out: IC50 (mean ± SD)
Method: as §1, §2

[3] = tested on: SK-OV-3 cells (ovarian carcinoma); assay: MTS cytotoxicity assay, SK-OV-3; assay type: cell-based, human; settings: read-out: IC50 (mean ± SD)
Method: as §1, §2

[4] = tested on: BEAS-2B normal lung epithelial cells; assay: MTS cytotoxicity assay, BEAS-2B; assay type: cell-based, human; settings: read-out: IC50 (mean ± SD)
Method: as §1, §2

[5] = Solubility in solvents; assay type: physicochemical
[6] = tested on: cisplatin-resistant SK-OV-3 cells (SK-OV-3/DDP); assay: MTS cytotoxicity assay, cisplatin-resistant SK-OV-3/DDP; assay type: cell-based, human; settings: for IC50: SK-OV-3/DDP cisplatin-resistant, MTS, t = 48 h, n = 3, read-out: IC50 (mean ± SD); for Resistance Index: ratio of IC50 value of resistant cells (SK-OV-3/DDP) to that of sensitive cells (SK-OV-3)
Method: Cross-resistance profile of the complexes 1a and 2a was evaluated. Resistance Index was defined as the ratio of IC50 value of resistant cells to that of sensitive cells. SK-OV-3 and cisplatin-resistant SK-OV-3 cells (SK-OV-3/DDP) cell lines were chosen for MTS assay because drug resistance frequently occurred in the chemotherapy of ovarian tumors. […] The results may be attributed to the synergistic effect between the platinum pharmacophores and DCA released by the hydrolysis of 1a and 2a in the cells.
as §1, §2

[7] = tested on: A549 cells; assay: Cell apoptosis assay (Annexin-V-FITC/Propidium iodide, flow cytometry), A549; assay type: cell-based, human; settings: t = 24 h, n = 3
Method: (§3) Human lung cancer (A549), human normal lung epithelial cell line (BEAS-2B), human stomach cancer (SGC-7901) and human ovarian cancer (SK-OV-3) were purchased from ATCC, whereas cisplatin-resistant SK-OV-3 cells (SK-OV-3/DDP) were kindly provided by Chinese Academy of Medical Sciences (Beijing, China). Cells were grown in DMEM or RPMI-1640 medium (Hyclone, USA) containing 10% fetal bovine serum. Both media were supplemented with 100 units/ml of penicillin and 100 μg/ml of streptomycin. Cells were maintained at 37°C in a humidified incubator with an atmosphere of 5% CO2. To analyze the cells for apoptosis, cells were plated and allowed to adhere overnight. Cells were treated with drugs indicated for 24 hours and then analyzed for apoptosis using Annexin-V-FITC/Propidium iodide staining. Cells were trypsinized, pelleted, washed in PBS, and resuspended in 1×binding buffer containing Annexin-V-FITC and propidium iodide (BD Pharmingen) according to the manufacturer's instructions. The samples were analyzed for the apoptosis using a FACSCalibur flow cytometer (BD Biosciences, Franklin Lakes, NJ).

[8] = tested on: BEAS-2B normal human lung bronchial epithelial cells; assay: Cell apoptosis assay (Annexin-V-FITC/Propidium iodide, flow cytometry), BEAS-2B; assay type: cell-based; settings: t = 24 h, n = 3
Method: as §3

[9] = Hydrolysis rate by HPLC; assay type: physicochemical; settings: 1:10 (v/v) solution of water and methanol, within 4 hours
Method: Both complexes were nearly insoluble in water or ethanol (≈0.1 mg/ml) and slightly soluble in methanol and DMSO, but soluble in polyethyleneglycol 400 which was chosen as the solvent to make the stock solutions of the complexes for the following biological testing. The hydrolysis rate of the complexes in 1:10 (v/v) solution of water and methanol determined by HPLC was less than 2% within 4 hours and the hydrolysis products were, as expected, dichloroacetate and 1b for complex 1a, or 2b for complex 2a. Complexes 1b and 2b were also synthesized for comparison in HPLC measurements as well as in biological tests. As 1b and 2b were found very soluble in water (>25 mg/ml) compared with 1a or 2a, another synthetic reaction was employed to produce the desired complexes. Accordingly complexes 1b and 2b also have two positional isomeric forms. All the complexes used in our studies were, in fact, a mixture of two isomeric forms.
An Agilent Zorbax SB-C18 column (4.6 × 250 mm, 5 μm) was used with CH3OH/H2O as the mobile phase. The flow rate was 1.0 ml/min, and the column temperature is 40°C. The detection wavelength was 238 nm and the injection volume was 10 μl.

[10] = SK-OV-3, MTS, t = 48 h, n = 3, Table 1
[11] = BEAS-2B normal cells, MTS, t = 48 h, n = 3
[12] = SK-OV-3 (sensitive), MTS, t = 48 h, n = 3, Table 3 cross-resistance experiment

Structure (SMILES) | IC50 ([1]; A549, MTS, t = 48 h, n = 3) [µM] | IC50 ([2]; SGC-7901, MTS, t = 48 h, n = 3) [µM] | IC50 [3, 10] [µM] | IC50 [4, 11] [µM] | IC50 [3, 12] [µM] | IC50 [6] [µM] | Resistance Index [6] | further results
N.N.O=C([O-])C1(C(=O)[O-])CCC1.[Pt+2] [Carboplatin, carboplatin, reference compound] | 141 ± 11.3 | 127 ± 11.8 | 65.3 ± 3.55 | 74.4 ± 2.51 |  |  |  | 
N.NC1CCCCC1.O=C1[O][Pt][O]C(=O)C12CC(O)C2 [Complex 2b] | 71.5 ± 5.21 | 69.5 ± 2.31 | 78.2 ± 1.85 | 75 ± 4.83 |  |  |  | Solubility in water [5]: > 25 mg/mL
N.NC1CCCC1.O=C(OC1CC2(C1)C(=O)[O][Pt][O]C2=O)C(Cl)Cl [Complex 1a] | 17.1 ± 1.55 | 21.9 ± 1.96 | 18.1 ± 0.85 | 61.5 ± 1.5 | 17.8 ± 3.97 | 18.1 ± 2.41 | ≈1 | Apoptosis, % (mean ± SD) ([7]; A549, 12.5 μM): 18.93% and 18.93 ± 3.83%; Apoptosis, % (mean ± SD) ([7]; A549, 25 μM): 26.76 ± 2.33%; Apoptosis, % (mean ± SD) ([7]; A549, 50 μM): 40.93 ± 9.66%; Apoptosis, % (mean ± SD) ([7]; A549, 100 μM): 67.46 ± 8.06%; Apoptosis, % (mean ± SD) ([8]; 12.5 μM): 0.71 ± 0.45%; Apoptosis, % (mean ± SD) ([8]; 25 μM): 1.24 ± 1.73%; Apoptosis, % (mean ± SD) ([8]; 50 μM): 1.27 ± 0.92%; Apoptosis, % (mean ± SD) ([8]; 100 μM): 2.88% and 2.88 ± 2.15%; Hydrolysis rate [9]: less than 2%
O=C(O)C(Cl)Cl [DCA, Dichloroacetate] |  |  |  |  |  |  |  | IC50 ([1]; Homo sapiens, A549, 48 h): > 200 µM; IC50 ([2]; Homo sapiens, SGC-7901, 48 h): > 200 µM; IC50 ([3]; Homo sapiens, SK-OV-3, 48 h): > 200 µM; IC50 ([4]; Homo sapiens, BEAS-2B, 48 h): > 200 µM
N.NC1CCCCC1.O=C(OC1CC2(C1)C(=O)[O][Pt][O]C2=O)C(Cl)Cl [Complex 2a] | 15.3 ± 1.12 | 16.7 ± 0.82 | 11.5 ± 0.91 | 52.1 ± 3.12 | 10.1 ± 2.38 | 11.1 ± 0.63 | ≈1 | Hydrolysis rate [9]: less than 2%
N.NC1CCCC1.O=C1[O][Pt][O]C(=O)C12CC(O)C2 [Complex 1b] | 61.5 ± 7.98 | 56.2 ± 4.88 | 74.2 ± 2.64 | 79.9 ± 2.57 |  |  |  | Solubility in water [5]: > 25 mg/mL
N.N.[Cl][Pt][Cl] [Cisplatin, cisplatin, reference compound] | 14.8 ± 1.02 | 13.6 ± 1.03 | 5.04 ± 0.25 | 11.7 ± 0.51 | 5.15 ± 1.38 | 19.2 ± 0.94 | ≈4 | Apoptosis, % (mean ± SD) ([7]; A549, 12.5 μM): 20.09 ± 3.06%; Apoptosis, % (mean ± SD) ([7]; A549, 25 μM): 32.84 ± 5.48%; Apoptosis, % (mean ± SD) ([7]; A549, 50 μM): 50.51 ± 6.42%; Apoptosis, % (mean ± SD) ([7]; A549, 100 μM): 56.28 ± 6.91%; Apoptosis, % (mean ± SD) ([8]; 12.5 μM): 2.64 ± 1.43%; Apoptosis, % (mean ± SD) ([8]; 25 μM): 5.86 ± 1.30%; Apoptosis, % (mean ± SD) ([8]; 50 μM): 38.93 ± 5.26%; Apoptosis, % (mean ± SD) ([8]; 100 μM): 42.80 ± 3.40%
